Experimental data as given in patent US20200345002A1, “COMPOSITIONS AND METHODS FOR INDUCING CROP CHANGES BY LEVERAGING THE EFFECTS OF AN APPLIED AGRICULTURAL CHEMICAL” (ADVANCED BIOLOGICAL MARKETING, INC., priority 2017, published 2020).

Test system: weedy target
Experiment: Greenhouse Paraquat spray on weedy target
Format: in vivo
Details: 24 hours post spray
Description: Turning to FIG. 8, recovery of replicates of plants using compositions of the present invention is shown. The control is in the upper left and the remaining plants are colonized with single Trichoderma strains, with 3 replicate plants per strain.

C[n+]1ccc(-c2cc[n+](C)cc2)cc1.[Cl-].[Cl-] [Paraquat, N,N′-dimethyl-4,4′-bipyridinium dichloride]
killing effect of the Paraquat application: complete killing effect
